# Assay results: patent publication US20220356398A1, “Composition and Method for Improving the Water Transport Characteristics of Hydrophobic Soils” (Ethox Chemicals, LLC, priority 2021, published 2022)
# Legend:
# [1] = Compatibility with the soil treatment polymers; format: physicochemical
# Description: (§1) Soil treatment polymers are relatively non-polar organic materials with limited water solubility.
# [2] = Humic acid removal (detergency)
# Description: as §1
substance,measurement,setting,value
monophosphate of POE (6) decyl alcohol,compatibility with the soil treatment polymers,[1],good compatibility
same,humic acid removal properties,[2],good humic acid removal properties
